Calls of active or inactive are those of the source. No cut-off for these calls is given here.
How the values were obtained:
[1] = biological target: T1, Histone acetyltransferase p300 (Homo sapiens, UniProt Q09472); assay: Inhibition of p300 (unknown origin) preincubated for 15 mins followed by addition of substrate [3H] Ac-CoA and measured after 60 mins by liquid scintillation counting assay
CREB-binding protein = CREB-binding protein (Homo sapiens, UniProt Q92793); assay: Inhibition of CBP (unknown origin) preincubated for 15 mins followed by addition of substrate [3H] Ac-CoA and measured after 60 mins by liquid scintillation counting assay
CREB-binding protein, sequence (Q92793 whole entry): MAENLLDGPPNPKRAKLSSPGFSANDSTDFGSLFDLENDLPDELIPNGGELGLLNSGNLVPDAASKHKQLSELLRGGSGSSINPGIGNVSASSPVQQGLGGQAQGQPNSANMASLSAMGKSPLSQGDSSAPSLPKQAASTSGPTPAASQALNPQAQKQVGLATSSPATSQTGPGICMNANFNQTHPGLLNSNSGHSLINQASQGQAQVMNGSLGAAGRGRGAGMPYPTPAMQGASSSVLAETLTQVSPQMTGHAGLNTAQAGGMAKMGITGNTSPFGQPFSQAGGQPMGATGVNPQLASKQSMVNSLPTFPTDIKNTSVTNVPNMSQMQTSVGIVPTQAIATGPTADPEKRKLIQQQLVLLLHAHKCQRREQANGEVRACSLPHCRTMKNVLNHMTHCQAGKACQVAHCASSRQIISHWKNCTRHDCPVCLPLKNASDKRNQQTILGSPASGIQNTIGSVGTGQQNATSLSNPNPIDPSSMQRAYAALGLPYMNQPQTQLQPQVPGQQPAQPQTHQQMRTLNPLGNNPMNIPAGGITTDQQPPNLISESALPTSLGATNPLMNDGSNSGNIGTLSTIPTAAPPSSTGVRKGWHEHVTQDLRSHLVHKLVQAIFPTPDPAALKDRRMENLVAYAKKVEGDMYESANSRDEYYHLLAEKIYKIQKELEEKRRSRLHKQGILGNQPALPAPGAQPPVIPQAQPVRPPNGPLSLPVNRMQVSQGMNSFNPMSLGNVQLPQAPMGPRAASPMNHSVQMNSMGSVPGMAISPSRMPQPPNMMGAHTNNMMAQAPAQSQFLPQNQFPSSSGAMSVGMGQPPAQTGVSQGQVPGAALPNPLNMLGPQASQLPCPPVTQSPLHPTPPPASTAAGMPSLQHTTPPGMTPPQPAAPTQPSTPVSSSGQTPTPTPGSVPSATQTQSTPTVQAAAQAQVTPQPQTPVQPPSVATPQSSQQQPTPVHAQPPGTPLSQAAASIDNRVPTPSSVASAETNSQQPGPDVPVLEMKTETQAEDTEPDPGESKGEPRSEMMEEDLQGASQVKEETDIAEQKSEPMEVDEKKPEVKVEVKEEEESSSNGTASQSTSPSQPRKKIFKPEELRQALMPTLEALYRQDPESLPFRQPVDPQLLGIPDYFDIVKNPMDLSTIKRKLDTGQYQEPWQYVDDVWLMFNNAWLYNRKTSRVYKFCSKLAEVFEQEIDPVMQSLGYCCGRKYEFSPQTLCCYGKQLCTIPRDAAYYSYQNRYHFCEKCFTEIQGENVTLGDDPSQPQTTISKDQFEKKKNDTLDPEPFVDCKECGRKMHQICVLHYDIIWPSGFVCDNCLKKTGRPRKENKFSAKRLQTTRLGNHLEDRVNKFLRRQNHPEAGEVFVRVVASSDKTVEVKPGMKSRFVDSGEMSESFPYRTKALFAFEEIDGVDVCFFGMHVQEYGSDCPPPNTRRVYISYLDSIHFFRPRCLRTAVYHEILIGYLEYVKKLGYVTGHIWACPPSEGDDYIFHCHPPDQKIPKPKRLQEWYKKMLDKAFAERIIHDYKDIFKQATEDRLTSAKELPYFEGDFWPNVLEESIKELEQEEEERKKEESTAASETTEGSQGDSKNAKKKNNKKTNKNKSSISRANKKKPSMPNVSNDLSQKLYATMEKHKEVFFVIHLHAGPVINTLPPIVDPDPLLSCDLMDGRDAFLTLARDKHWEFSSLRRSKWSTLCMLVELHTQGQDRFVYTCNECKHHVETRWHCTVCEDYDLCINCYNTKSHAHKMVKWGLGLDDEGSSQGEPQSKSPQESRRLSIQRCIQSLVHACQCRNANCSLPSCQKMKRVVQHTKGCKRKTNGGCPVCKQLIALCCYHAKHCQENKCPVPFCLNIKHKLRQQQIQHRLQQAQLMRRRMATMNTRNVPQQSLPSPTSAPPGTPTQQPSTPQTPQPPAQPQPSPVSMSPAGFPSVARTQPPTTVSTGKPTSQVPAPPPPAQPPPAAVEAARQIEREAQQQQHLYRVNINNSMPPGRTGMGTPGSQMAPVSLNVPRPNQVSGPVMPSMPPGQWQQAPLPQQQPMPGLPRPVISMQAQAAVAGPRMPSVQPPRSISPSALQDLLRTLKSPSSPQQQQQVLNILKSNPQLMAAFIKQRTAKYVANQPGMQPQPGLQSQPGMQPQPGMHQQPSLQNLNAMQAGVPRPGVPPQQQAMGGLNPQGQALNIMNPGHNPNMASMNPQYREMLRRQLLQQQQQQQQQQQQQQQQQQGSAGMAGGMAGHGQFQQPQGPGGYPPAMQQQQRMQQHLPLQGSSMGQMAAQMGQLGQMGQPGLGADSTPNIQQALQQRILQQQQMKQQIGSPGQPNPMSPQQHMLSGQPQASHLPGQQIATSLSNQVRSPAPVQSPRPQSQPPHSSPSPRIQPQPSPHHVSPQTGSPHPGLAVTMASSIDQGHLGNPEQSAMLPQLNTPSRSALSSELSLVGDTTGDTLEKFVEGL

OVCAR-3 [2] = assay: Antiproliferative activity against human OVCAR-3 cells assessed as inhibition of cell proliferation measured after 120 hrs by Cell-titre glo assay; assay type: functional, cell-based; conditions: OVCAR-3, 120 h
A2780 = assay: Antiproliferative activity against human A2780 cells assessed as inhibition of cell proliferation measured after 120 hrs by Cell-titre glo assay; assay type: functional, cell-based; conditions: A2780, 120 h
[3] = Stability in human liver microsomes assessed as intrinsic clearance; assay type: ADME, Microsome
[4] = Stability in rat liver microsomes assessed as intrinsic clearance; assay type: ADME, Microsome
[5] = Stability in mouse liver microsomes assessed as intrinsic clearance; assay type: ADME, Microsome
OVCAR-3 [6] = assay: Antitumour activity against human OVCAR-3 cells xenografted in Balb/c mouse assessed as reduction of tumor volume at 30 mg/kg, ip qd measured every 3 to 4 days for 2 weeks (reference value: 2838.39 +/- 1392.47 mm3); assay type: functional
[7] = AUC(last) in Sprague-Dawley rat at 3 mg/kg, po; assay type: ADME, organism-based; parameters: time 0 - last, route oral, dose 3 mg/kg; conditions: in vivo
[8] = Tmax in Sprague-Dawley rat at 3 mg/kg, po; assay type: ADME, organism-based; conditions: in vivo
SK-OV-3 = assay: Antiproliferative activity against human SK-OV-3 cells assessed as inhibition of cell proliferation measured after 120 hrs by Cell-titre glo assay; assay type: functional, cell-based
[9] = Toxicity in Balb/c nude mouse xenografted with human OVCAR-3 cells assessed as body weight loss at 20 to 30 mg/kg, ip qd measured every 3 to 4 days for 2 weeks; assay type: organism-based; conditions: in vivo, 336 h, dose 20-30 mg/kg
[10] = Half life in Sprague-Dawley rat at 3 mg/kg, po; assay type: ADME, organism-based; conditions: in vivo
[11] = biological target: T1, Histone acetyltransferase p300; assay: Inhibition of p300 (unknown origin)
OVCAR-3 [12] = assay: Antitumour activity against human OVCAR-3 cells xenografted in Balb/c mouse assessed as reduction of tumor volume at 100 mg/kg, ip qd measured every 3 to 4 days for 2 weeks; assay type: functional, organism-based
[13] = Cmax in Sprague-Dawley rat at 3 mg/kg, po; assay type: ADME, organism-based; parameters: route oral, dose 3 mg/kg; conditions: in vivo
HEK293 = assay: Antiproliferative activity against human 293 cells assessed as inhibition of cell proliferation measured after 120 hrs by Cell-titre glo assay; assay type: cell-based; conditions: hek293, 120 h
[14] = biological target: CREB-binding protein/Histone acetyltransferase p300 (Homo sapiens) (UniProt Q09472+Q92793); assay: Inhibition of p300/CBP in human OVCAR-3 cells assessed as reduction of C-myc levels at 0.25 uM measured after 2 days by Western blot assay relative to control; assay type: cell-based; conditions: time 2.0 day
CREB-binding protein/Histone acetyltransferase p300 (Homo sapiens), sequence (Q09472 whole entry, looked up): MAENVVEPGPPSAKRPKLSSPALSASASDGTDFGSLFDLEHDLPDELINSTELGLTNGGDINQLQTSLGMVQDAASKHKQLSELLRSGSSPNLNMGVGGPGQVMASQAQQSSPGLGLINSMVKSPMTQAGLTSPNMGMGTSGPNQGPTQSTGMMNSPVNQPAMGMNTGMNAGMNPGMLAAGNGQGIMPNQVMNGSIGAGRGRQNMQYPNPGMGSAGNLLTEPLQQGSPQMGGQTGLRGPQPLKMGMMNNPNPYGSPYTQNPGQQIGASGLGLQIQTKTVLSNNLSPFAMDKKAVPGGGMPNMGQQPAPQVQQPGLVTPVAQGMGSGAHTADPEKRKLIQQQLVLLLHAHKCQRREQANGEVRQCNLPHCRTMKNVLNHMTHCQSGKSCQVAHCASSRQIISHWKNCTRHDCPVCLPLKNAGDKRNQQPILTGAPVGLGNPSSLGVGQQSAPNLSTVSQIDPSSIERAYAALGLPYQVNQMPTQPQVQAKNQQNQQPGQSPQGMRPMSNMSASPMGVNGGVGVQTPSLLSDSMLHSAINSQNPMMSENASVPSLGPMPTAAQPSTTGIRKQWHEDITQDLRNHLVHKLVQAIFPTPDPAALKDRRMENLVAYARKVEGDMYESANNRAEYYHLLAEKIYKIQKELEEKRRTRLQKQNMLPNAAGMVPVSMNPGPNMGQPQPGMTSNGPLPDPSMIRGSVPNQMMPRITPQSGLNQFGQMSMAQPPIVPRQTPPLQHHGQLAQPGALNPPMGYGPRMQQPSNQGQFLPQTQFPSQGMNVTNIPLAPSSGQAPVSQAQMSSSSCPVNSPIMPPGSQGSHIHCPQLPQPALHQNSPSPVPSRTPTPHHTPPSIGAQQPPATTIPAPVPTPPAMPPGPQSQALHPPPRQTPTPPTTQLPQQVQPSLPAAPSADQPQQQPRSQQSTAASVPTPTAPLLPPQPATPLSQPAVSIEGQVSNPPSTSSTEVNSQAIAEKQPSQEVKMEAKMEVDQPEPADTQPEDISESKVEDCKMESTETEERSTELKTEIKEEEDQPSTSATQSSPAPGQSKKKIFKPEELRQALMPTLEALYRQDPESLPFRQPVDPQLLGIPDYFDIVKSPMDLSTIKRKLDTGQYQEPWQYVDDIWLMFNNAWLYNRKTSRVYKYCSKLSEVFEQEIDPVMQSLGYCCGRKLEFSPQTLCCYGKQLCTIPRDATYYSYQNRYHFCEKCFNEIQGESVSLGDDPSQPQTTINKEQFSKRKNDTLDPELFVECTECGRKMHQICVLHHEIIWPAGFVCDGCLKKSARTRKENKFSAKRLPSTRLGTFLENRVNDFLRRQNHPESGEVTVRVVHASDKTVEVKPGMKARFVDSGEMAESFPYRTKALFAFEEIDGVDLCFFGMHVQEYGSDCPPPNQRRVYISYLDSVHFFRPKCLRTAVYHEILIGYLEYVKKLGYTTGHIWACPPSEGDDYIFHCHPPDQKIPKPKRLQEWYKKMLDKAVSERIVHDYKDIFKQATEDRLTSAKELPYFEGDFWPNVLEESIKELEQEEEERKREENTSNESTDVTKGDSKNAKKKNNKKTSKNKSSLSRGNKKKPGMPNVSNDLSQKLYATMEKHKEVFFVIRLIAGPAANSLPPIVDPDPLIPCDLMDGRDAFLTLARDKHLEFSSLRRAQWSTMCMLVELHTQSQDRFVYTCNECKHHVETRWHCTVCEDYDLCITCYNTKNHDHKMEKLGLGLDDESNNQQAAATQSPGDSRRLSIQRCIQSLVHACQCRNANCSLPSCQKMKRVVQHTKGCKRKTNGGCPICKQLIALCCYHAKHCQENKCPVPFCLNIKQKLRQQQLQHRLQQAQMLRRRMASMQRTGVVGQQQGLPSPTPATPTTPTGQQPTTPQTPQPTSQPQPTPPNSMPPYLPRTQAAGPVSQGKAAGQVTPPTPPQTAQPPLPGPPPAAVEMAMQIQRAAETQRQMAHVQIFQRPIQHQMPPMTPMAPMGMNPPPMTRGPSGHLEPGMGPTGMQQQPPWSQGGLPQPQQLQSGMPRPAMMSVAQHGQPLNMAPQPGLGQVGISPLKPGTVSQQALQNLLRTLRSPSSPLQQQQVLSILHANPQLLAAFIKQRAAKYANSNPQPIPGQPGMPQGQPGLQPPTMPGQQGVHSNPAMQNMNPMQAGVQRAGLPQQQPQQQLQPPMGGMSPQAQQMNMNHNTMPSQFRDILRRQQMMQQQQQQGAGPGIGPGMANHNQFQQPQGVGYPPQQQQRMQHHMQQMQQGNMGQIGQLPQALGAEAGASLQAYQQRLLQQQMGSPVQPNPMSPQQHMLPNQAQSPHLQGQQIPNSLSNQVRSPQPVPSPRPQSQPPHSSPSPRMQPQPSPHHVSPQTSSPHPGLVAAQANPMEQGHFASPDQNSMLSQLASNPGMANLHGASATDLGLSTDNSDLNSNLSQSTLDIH
CREB-binding protein/Histone acetyltransferase p300 (Homo sapiens), sequence (Q92793 whole entry, looked up): as the sequence (Q92793 whole entry) above

TOV21G = assay: Antiproliferative activity against human TOV-21G cells assessed as inhibition of cell proliferation measured after 120 hrs by Cell-titre glo assay; assay type: functional, cell-based
OVCAR-3 [15] = assay: Antitumour activity against human OVCAR-3 cells xenografted in Balb/c mouse assessed as reduction of tumor volume at 20 mg/kg, ip qd measured every 3 to 4 days for 2 weeks; assay type: functional, organism-based
[16] = biological target: T1, Histone acetyltransferase p300; assay: Inhibition of p300 in human OVCAR-3 cells assessed as reduction of H3K27ac levels measured after 24 hrs by Western blot assay; assay type: cell-based; conditions: dose 0.25-4 µM
[17] = Toxicity in Balb/c nude mouse xenografted with human OVCAR-3 cells assessed as body weight loss at 30 mg/kg, ip measured after 24 days; assay type: organism-based; conditions: in vivo, 576 h, time 24 day
[18] = biological target: T1, Histone acetyltransferase p300; assay: Inhibition of p300 in human OVCAR-3 cells assessed as reduction of H3K18ac levels measured after 24 hrs by Western blot assay; assay type: cell-based; conditions: dose 0.25-4 µM
[19] = biological target: Histone acetyltransferase KAT2A (Homo sapiens) (UniProt Q92830); assay: Inhibition of GCN5 in human OVCAR-3 cells assessed as reduction of H3K9ac levels at 0.25 to 4 uM after 24 hrs by Western blot assay; assay type: cell-based; conditions: dose 0.25-4 µM

T1 sequence (Q09472 whole entry): as the sequence (Q09472 whole entry, looked up) above

| SMILES | IC50 [1] [nM] | IC50 (CREB-binding protein) [nM] | EC50 (OVCAR-3 [2]) [nM] | EC50 (A2780) [nM] | also measured |
| --- | --- | --- | --- | --- | --- |
| CNC(=O)Nc1ccc2c(c1)CCC[C@@]21OC(=O)N(CC(=O)N2Cc3ccc(F)cc3CC[C@H]2C2CC2)C1=O | 2.2 | 14 |  |  |  |
| CNC(=O)Nc1ccc2c(c1)CC[C@@]21OC(=O)N(CC(=O)N(Cc2ccc(F)cc2)[C@@H](C)C(F)(F)F)C1=O [A-485] |  |  | 5440 |  |  |
| CNC(=O)Nc1ccc2c(c1)CC[C@@]21OC(=O)N(CC(=O)N2Cc3cnccc3CC[C@H]2C2CC2)C1=O | 13 | 41 |  |  |  |
| CNC(=O)Nc1ccc2c(c1)OCC[C@@]21OC(=O)N(CC(=O)N2Cc3ccc(F)cc3CC[C@H]2C2CC2)C1=O | 8.6 | 22 |  |  |  |
| CNC(=O)Nc1cc2c(cc1F)[C@@]1(CC2)OC(=O)N(CC(=O)N2Cc3ccc(F)cc3CC[C@H]2C2CC2)C1=O | 1.7 | 8.2 | 4300 | 4470 | CLH [3]: 161 mL/min/g; CLH [4]: 94.4 mL/min/g; CLH [5]: 106 mL/min/g |
| CNC(=O)Nc1ccc2c(c1)CC[C@@]21OC(=O)N(CC(=O)N2Cc3cccnc3CC[C@H]2C2CC2)C1=O | 10 | 44 |  |  |  |
| CNC(=O)Nc1ccc2c(c1)CC[C@@]21OC(=O)N(CC(=O)N2Cc3sccc3OC[C@H]2C2CC2)C1=O | 4 | 12 |  |  |  |
| CNC(=O)Nc1ccc2c(c1)CC[C@@]21OC(=O)N(CC(=O)N2Cc3cc(F)ccc3OC[C@H]2C2CC2)C1=O | 0.49 | 7.1 | 153 | 678 | Activity (OVCAR-3 [6]): 1703.74 mm3; AUClast [7]: 480 ng·h/mL; Tmax [8]: 1 h; Activity (SK-OV-3): Active; CLH [3]: 34.8 mL/min/g; Activity [9]: Toxic; t1/2 [10]: 1.4 h; IC50 [11]: 0.51 nM; Activity (OVCAR-3 [12]): Active; Cmax [13]: 20.3 ng/mL; Activity (HEK293): Non-Toxic; inhibition [14]: 50%; Activity (TOV21G): Active; Activity (OVCAR-3 [15]): Active; inhibition [16]: Dose-Dependent Effect; CLH [4]: 66.5 mL/min/g; Activity [17]: Toxic; CLH [5]: 48 mL/min/g; inhibition [18]: Dose-Dependent Effect; inhibition [19]: inactive |
| CNC(=O)Nc1ccc2c(c1)CC[C@@]21OC(=O)N(CC(=O)N2Cc3ccc(F)cc3CC[C@H]2C2CC2)C1=O | 0.95 | 8.1 | 90.4 | 471 | CLH [3]: 112 mL/min/g; CLH [4]: 258 mL/min/g; CLH [5]: 150 mL/min/g |
| CNC(=O)Nc1ccc2c(c1)CC[C@@]21OC(=O)N(CC(=O)N2Cc3ccncc3CC[C@H]2C2CC2)C1=O | 9.8 | 28 |  |  |  |

Continued by falling IC50 [1], values first:

| IC50 [1] [nM] | IC50 (CREB-binding protein) [nM] | EC50 (OVCAR-3 [2]) [nM] | EC50 (A2780) [nM] | SMILES | also measured |
| --- | --- | --- | --- | --- | --- |
| 430 | 680 |  |  | CNC(=O)Nc1ccc2c(c1)CC[C@@]21OC(=O)N(CC(=O)N2Cc3sc(C)c(C)c3OC[C@H]2C(F)(F)F)C1=O |  |
| 12 | 51 |  |  | CNC(=O)Nc1ccc2c(c1)COC[C@@]21OC(=O)N(CC(=O)N2Cc3cc(F)ccc3OC[C@H]2C2CC2)C1=O |  |
| 11 | 69 |  |  | CNC(=O)Nc1ccc2c(c1)CCC[C@@]21OC(=O)N(CC(=O)N2Cc3cc(F)ccc3OC[C@H]2C2CC2)C1=O |  |
| 8.6 | 30 |  |  | CNC(=O)Nc1ccc2c(c1)CC[C@@]21OC(=O)N(CC(=O)N2Cc3ncccc3CC[C@H]2C2CC2)C1=O |  |
| 2.5 | 28 | 865 | 2710 | CNC(=O)Nc1ccc2c(c1)CC[C@@]21OC(=O)N(CC(=O)N2Cc3ccccc3CC[C@H]2C)C1=O |  |
| 0.56 | 7 | 164 | 974 | CNC(=O)Nc1ccc2c(c1)CC[C@@]21OC(=O)N(CC(=O)N2Cc3cc(F)c(F)cc3CC[C@H]2C2CC2)C1=O |  |
